The source of these data is patent publication US12257251B2, “Use of FAK inhibitor in preparation of drug for treating tumors having NRAS mutation” (INXMED (NANJING) CO., LTD., priority 2019, dated 2025).

Series [1] concerns human esophageal cancer cell line KYSE-270. The series can be described thus: Subcutaneous xenograft of human esophageal cancer cell line KYSE-270 in NMRI nude mice: tumor growth. It is filed as in vivo, mouse. The note with it: for Tumor shrinkage [x/y]: Paclitaxel 10 mg/Kg q7d. How it is done: 1.1. Model: Subcutaneous xenograft of human esophageal cancer cell line KYSE-270 in NMRI nude mice.
1.3. Cells: KYSE-270 is an esophageal cancer cell line (Public Health England, catalog number: 94072021). Cells were cultured in T175 tissue culture flasks containing 5% CO2 at 37° C. The medium was RPMI 1640+HAM F12 (1:1) supplemented with 2% FCS and 2 mM Glutamax. Passage was performed three times a week at a ratio of 1:2.
1.4. Mice: Mice were 8 to 10 week old female mice (BomTac: NMRI-Foxn1^nu) purchased from Taconic®, Denmark. Upon arrival in the animal room, the mice were allowed to acclimate for at least 5 days before being used for assay. The animals were housed under standard conditions (temperature: 21.5±1.5° C., humidity: 55+10%), 7 to 10 mice for each group. A standard diet and autoclaved tap water were provided for ad libitum feeding. A subcutaneous microchip implanted under isoflurane anesthesia was used to identify each mouse.
1.5. Random establishment of tumors: To establish subcutaneous tumors, KYSE-270 cells were harvested by centrifugation, washed and resuspended in PBS+5% FCS at a concentration of 5×10^7 cells/ml. Then 100 l of cell suspension containing 5×10^6 cells was injected subcutaneously into the right flank of mice (1 site per mouse). When tumors were well established and reached a volume of 94 to 252 mm^3, mice were randomly assigned to the treatment group and the control group (13 days after cell injection).
1.6. Administration: BI 853520 was suspended in 0.5% hydroxyethyl cellulose, which was administered intragastrically through gavage needle every day, and the dosage was 10 mL/Kg body weight. Paclitaxel was dissolved in saline (0.9% NaCl), which was administered intravenously in a volume of 10 ml/kg body weight. The suspension of BI853520 could be used for up to 7 days. Paclitaxel solution was stored at 6° C. and used for up to 14 days.
(§1) 1.7. Monitoring tumor growth and side effects: Tumor diameters were measured with calipers three times a week. The volume [mm^3] of each tumor was calculated according to the equation “tumor volume=length×diameter^2×π/6”. To monitor the side effects of the treatment, the mice were checked daily for abnormalities and their body weights were measured three times a week. For ethical reasons, animals with tumors larger than 1.5 cm in diameter, ulcerated tumors, or 20% body weight loss were euthanized.
Statistical assessment of tumor volume and body weight on day 13 was performed. Animal number 1 (control group) was excluded from the statistical evaluation because of weight loss and had to be euthanized early (day 9). Measured tumor volume was used as the target variable in the statistical analysis. The number of animals and the median, minimum and maximum tumor volumes in each group were calculated. For a quick overview of possible treatment effects, the median tumor volume for each treatment group T and the median tumor volume for the control group C were used to calculate TGI: TGI=100×[(Cd−C1)−(Td−T1)]/(Cd−C1) • wherein, C1, T1=median tumor volume in control and treatment groups at the start of the assay (day 1). • Cd, Td=median tumor volume in control and treatment groups at the end of the assay (day 13).
(§2) The wilcoxon test was used for comparison. For body weight, the percent change relative to initial body weight on day 1 was used as the target variable for statistical analysis. The number of animals, and the median, minimum and maximum weight changes in each group were calculated.
(§3) One-sided test to compare all treatment groups with control group was performed for observing: • reduction in tumor volume (inhibition of tumor growth, efficacy parameter) and • reduction in weight changes (weight loss, tolerance parameters).
Within each subtopic, p-values for the efficacy parameter were compared and adjusted for multiple times according to Bonferroni-Holm. The p-value for the tolerance parameter was kept constant so as not to overlook possible side effects. […]
For orientation: In xenograft studies the graft and the host belong to different species.

Series [2] can be described thus: Body weight change (tolerability) in the KYSE-270 xenograft study. It is filed as in vivo, mouse. How it is done:
as §1, §2, §3
Within each subtopic, p-values for the efficacy parameter were compared and adjusted for multiple times according to Bonferroni-Holm. The p-value for the tolerance parameter was kept constant so as not to overlook possible side effects. Significance level was fixed at α=5%. A p-value (adjusted) of less than 0.05 was considered to show a statistically significant difference between groups, and 0.05≤p-value<0.10 was considered as an indicative difference. Statistical evaluations were performed using the SAS software package version 9.4 (SAS Institute Inc., Cary NC, USA).

Structures are written as SMILES.

What is called TGI is the reduction of tumour growth relative to the control group. For the molecule `CC(=O)O[C@H]1C(=O)[C@@]2(C)[C@H]([C@H](OC(=O)c3ccccc3)[C@]3(O)C[C@H](OC(=O)[C@H](O)[C@@H](NC(=O)c4ccccc4)c4ccccc4)C(C)=C1C3(C)C)[C@]1(OC(C)=O)CO[C@@H]1C[C@@H]2O` [Paclitaxel, reference compound], the “Tumor shrinkage [x/y]” value in series [1] (day 13) was 0/7; in series [1] (day 13, listed as paclitaxel), “none”. The same molecule returned a TGI in series [1] (Paclitaxel 10 mg/Kg q7d i.v., day 13) of 2%. Besides, the Median tumor volume in series [1] (paclitaxel 10 mg/kg once a week, day 13 (start 190 mm^3)) was determined as 1033 mm^3. For the same molecule, the “Change in median weight” value in series [2] (Paclitaxel 10 mg/Kg q7d, day 13 versus day 1) is −9.7%. For the same molecule, the “Reduction in the median body weight” value in series [2] (Paclitaxel 10 mg/kg once a week, day 13, given as a decrease) was found to be 9.7%.
